# In ChEMBL document CHEMBL1201862, “PubChem BioAssay data set” (2004):
# The source made the active and inactive calls.
# Tests used:
# [1] = Counterscreen for activators of the function of SWI/SNF related, matrix associated, actin dependent regulator of chromatin, subfamily a, member 2 (SMARCA2, BRM): Luminescence-based cell-based high throughput dose response assay to identify non-selective compounds using the VP16 reporter assay.; format: functional
# [2] = target: SWI/SNF-related matrix-associated actin-dependent regulator of chromatin subfamily A member 2 (Homo sapiens, UniProt P51531); experiment: Luminescence-based cell-based high throughput dose response assay to identify activators of the function of SWI/SNF related, matrix associated, actin dependent regulator of chromatin, subfamily a, member 2 (SMARCA2, BRM).; format: functional
# Chain of SWI/SNF-related matrix-associated actin-dependent regulator of chromatin subfamily A member 2 (P51531 whole entry): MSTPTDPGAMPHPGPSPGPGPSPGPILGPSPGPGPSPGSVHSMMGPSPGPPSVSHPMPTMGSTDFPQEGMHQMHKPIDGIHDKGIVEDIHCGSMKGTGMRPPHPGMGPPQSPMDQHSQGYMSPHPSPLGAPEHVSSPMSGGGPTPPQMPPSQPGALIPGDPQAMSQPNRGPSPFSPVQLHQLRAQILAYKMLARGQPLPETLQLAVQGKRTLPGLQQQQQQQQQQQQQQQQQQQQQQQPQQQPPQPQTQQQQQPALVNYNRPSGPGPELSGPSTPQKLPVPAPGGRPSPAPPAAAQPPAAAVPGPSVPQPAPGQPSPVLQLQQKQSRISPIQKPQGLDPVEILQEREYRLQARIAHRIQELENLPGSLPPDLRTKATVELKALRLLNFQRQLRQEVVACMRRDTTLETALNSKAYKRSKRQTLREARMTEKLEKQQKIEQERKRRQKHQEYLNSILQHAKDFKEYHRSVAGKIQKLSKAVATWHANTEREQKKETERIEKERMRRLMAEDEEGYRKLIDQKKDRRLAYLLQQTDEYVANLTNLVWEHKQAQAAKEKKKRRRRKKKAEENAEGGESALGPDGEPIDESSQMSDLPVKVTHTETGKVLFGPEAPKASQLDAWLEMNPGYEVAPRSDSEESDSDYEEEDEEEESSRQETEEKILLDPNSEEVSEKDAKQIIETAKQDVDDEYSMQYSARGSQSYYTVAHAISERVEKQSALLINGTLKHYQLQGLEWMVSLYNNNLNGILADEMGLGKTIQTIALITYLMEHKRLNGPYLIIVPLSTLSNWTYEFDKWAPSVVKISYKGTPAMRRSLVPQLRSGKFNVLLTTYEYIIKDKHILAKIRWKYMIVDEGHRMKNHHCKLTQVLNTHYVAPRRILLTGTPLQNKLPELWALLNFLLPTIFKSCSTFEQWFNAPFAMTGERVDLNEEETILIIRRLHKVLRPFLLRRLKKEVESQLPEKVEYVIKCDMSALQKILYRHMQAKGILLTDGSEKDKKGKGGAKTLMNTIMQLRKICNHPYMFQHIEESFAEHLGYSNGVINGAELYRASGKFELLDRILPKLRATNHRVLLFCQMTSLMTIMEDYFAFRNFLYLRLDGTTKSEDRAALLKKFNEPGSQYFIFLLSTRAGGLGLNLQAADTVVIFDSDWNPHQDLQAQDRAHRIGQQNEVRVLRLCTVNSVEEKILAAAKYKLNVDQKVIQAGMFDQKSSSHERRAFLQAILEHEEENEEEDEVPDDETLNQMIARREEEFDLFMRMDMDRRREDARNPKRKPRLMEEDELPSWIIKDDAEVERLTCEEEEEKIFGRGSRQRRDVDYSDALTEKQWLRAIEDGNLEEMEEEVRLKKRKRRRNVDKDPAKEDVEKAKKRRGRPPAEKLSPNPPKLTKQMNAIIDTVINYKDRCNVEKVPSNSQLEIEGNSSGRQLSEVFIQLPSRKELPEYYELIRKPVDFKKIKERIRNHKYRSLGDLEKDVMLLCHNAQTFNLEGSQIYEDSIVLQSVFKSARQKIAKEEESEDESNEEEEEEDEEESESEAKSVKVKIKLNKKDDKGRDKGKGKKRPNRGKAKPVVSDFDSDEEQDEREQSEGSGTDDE
# [3] = target: Beta-galactosidase (Escherichia coli, UniProt Q8VNN2); experiment: Dose response counterscreen for EBI2 assay utilizing the enzyme, b-galactosidase.; format: functional
# Chain of Beta-galactosidase (Q8VNN2 whole entry): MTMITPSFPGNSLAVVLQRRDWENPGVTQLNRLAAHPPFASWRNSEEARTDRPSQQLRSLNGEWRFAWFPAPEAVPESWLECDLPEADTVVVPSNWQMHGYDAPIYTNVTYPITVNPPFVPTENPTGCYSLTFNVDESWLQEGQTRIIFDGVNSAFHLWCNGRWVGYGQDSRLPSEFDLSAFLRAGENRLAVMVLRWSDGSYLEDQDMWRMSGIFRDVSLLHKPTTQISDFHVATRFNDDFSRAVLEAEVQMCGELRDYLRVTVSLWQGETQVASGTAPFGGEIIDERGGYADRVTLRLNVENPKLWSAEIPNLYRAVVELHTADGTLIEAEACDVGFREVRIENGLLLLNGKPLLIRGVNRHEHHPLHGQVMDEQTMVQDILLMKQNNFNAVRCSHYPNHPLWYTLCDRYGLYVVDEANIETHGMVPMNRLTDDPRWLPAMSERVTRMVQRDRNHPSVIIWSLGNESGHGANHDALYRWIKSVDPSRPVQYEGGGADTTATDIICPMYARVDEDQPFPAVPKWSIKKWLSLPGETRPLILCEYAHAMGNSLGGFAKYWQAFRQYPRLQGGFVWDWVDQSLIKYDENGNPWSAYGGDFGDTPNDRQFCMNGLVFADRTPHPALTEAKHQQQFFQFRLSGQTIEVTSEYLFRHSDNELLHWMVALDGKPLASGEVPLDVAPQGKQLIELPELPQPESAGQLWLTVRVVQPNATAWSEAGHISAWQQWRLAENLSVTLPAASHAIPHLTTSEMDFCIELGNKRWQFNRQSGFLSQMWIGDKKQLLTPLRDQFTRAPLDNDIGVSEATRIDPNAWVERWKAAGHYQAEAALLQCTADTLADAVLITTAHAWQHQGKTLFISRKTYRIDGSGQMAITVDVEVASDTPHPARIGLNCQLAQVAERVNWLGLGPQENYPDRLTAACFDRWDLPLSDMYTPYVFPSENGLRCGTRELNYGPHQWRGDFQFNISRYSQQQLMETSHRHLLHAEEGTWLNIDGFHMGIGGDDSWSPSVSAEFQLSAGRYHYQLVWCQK
# [4] = target: T1, Corticotropin-releasing factor receptor 2/Corticotropin-releasing factor-binding protein (Homo sapiens, UniProt P24387+Q13324); experiment: Dose Response confirmation of uHTS hits for small molecule antagonists of the CRF-binding protein and CRF-R2 receptor complex.; format: functional; settings: read-out: IC50_Mean
# T1 sequence (Q13324 whole entry): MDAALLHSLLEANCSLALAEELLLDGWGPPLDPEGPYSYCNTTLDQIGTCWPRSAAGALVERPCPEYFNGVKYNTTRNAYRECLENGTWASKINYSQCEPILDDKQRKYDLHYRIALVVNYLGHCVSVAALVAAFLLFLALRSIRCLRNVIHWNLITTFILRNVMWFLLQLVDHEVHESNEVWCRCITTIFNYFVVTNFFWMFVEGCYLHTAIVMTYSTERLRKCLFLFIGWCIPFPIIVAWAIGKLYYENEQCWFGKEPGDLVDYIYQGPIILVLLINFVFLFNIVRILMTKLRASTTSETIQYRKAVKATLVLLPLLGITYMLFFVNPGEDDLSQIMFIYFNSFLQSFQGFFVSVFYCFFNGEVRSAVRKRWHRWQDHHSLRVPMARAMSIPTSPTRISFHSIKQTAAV
# T1 sequence (P24387 whole entry): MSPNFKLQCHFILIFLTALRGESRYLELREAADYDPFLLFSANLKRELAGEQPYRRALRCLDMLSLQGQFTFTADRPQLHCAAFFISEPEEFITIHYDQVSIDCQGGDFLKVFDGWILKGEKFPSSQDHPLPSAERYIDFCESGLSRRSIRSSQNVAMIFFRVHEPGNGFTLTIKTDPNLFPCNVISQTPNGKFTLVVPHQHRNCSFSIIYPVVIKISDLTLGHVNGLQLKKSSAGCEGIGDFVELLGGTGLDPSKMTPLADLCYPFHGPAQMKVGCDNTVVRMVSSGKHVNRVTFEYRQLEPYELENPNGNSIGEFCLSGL
# [5] = target: T1, Corticotropin-releasing factor receptor 2/Corticotropin-releasing factor-binding protein; experiment: activators of CRF receptor 2 with binding protein – uHTS hits, confirmation (AID 602473); format: functional; settings: read-out: EC50_Mean
# [6] = target: T2, Carboxy-terminal domain RNA polymerase II polypeptide A small phosphatase 1 (Homo sapiens, UniProt Q9GZU7); experiment: inhibitors of CTDSP1, concentration-response testing, biochemical assay, absorbance-based, actives from ultra-high-throughput screening (AID 540297); format: functional
# T2 sequence (Q9GZU7 whole entry): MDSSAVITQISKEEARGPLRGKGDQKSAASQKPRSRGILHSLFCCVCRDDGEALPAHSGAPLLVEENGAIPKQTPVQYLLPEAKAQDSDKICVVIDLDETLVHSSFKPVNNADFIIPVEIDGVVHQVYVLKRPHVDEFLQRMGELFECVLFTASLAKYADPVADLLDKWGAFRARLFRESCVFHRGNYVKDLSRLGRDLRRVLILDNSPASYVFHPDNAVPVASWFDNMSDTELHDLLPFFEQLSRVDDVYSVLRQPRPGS
# [7] = target: T3, Protein RecA (Mycobacterium tuberculosis, UniProt P9WHJ3); experiment: Fluorescence Cell-Free Homogeneous Dose Retest to Identify Inhibitors of RecA-Intein Splicing Activity. [Related pubchem assays (depositor defined):AID2097, AID2223, AID489010, AID492950]; format: functional
# T3 sequence (P9WHJ3 whole entry): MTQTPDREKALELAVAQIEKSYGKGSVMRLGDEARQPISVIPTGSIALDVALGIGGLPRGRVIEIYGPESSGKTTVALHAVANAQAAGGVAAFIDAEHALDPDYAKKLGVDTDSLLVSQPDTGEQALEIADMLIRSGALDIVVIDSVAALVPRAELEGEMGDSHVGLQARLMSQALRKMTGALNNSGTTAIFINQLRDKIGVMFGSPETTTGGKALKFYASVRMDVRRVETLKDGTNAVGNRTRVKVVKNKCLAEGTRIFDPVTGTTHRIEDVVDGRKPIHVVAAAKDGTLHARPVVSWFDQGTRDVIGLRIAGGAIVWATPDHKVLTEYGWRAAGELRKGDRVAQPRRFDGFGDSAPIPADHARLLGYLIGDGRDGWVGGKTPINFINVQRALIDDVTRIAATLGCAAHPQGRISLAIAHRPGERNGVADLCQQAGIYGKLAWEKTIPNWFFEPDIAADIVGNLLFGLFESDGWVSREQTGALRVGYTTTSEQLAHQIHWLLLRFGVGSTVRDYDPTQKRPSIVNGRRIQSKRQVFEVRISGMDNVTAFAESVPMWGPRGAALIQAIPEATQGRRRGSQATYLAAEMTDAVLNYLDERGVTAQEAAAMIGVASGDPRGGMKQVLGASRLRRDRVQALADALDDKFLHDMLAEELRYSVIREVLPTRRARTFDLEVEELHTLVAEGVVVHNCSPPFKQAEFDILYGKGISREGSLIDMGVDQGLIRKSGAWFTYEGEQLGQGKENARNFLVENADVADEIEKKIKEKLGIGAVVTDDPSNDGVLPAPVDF
# [8] = target: T4, Small ubiquitin-related modifier 1 (Homo sapiens, UniProt P63165); experiment: inhibitors of SUMO1 peptide binding, dose response, biochemical, fluorescence polarization, uHTS hits (AID 624382); format: functional; settings: read-out: IC50_Mean
# T4 sequence (P63165 whole entry): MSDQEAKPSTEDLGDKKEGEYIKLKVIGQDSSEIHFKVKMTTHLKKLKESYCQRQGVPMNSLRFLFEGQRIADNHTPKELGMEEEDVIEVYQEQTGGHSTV
# [9] = target: T5, Caspase-6 (Homo sapiens, UniProt P55212); experiment: human caspase-6 inhibitors, dose response, biochemical, VEID-R110 fluorescence, cherry-pick (AID 720632)
# T5 sequence (P55212 whole entry): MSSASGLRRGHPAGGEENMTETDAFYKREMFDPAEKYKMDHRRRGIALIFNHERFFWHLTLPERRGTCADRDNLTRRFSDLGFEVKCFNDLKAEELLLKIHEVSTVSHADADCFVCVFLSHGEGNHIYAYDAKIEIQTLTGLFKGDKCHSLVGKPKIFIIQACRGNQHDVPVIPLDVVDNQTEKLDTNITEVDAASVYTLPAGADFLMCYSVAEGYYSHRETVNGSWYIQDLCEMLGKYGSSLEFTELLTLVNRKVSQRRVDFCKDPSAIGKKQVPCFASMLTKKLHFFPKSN
# [10] = target: T4, Small ubiquitin-related modifier 1; experiment: inhibitors of SUMO1 partner interactions, dose response, biochemical, FRET (AID 624383); format: functional; settings: read-out: IC50_Mean
# [11] = target: T6, Replicative DNA helicase DnaB (Mycobacterium tuberculosis, UniProt P9WMR3); experiment: DnaB intein splicing inhibitors, dose response, biochemical, cell-free fluorescence (AID 449749); format: functional
# T6 sequence (P9WMR3 whole entry): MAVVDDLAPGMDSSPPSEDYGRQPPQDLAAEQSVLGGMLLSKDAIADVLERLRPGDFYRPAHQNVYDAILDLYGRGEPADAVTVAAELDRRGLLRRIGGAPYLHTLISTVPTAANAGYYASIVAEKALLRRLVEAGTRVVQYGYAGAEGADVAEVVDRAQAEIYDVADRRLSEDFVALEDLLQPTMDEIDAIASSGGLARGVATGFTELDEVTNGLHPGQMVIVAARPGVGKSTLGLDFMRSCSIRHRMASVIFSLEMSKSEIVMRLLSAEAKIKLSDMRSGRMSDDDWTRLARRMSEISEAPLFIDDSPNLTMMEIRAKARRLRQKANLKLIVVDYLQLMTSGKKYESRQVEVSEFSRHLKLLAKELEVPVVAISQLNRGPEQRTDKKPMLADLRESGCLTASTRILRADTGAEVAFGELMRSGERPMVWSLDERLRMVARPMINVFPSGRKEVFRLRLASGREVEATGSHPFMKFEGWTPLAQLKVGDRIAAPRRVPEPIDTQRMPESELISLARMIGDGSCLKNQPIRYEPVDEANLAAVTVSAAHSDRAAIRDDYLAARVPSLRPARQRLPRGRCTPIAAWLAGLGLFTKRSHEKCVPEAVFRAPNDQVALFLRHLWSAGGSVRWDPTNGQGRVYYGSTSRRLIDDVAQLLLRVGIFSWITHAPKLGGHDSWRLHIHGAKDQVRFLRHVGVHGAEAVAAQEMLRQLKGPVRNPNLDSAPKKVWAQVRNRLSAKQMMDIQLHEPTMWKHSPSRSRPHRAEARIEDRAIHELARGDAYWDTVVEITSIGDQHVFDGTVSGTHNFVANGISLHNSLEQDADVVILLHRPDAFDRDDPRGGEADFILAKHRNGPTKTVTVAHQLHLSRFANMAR
# [12] = Luminescence Cell-Based Dose Response HTS to Identify Inhibitors of 5'UTR Stem-Loop Driven Prion Protein mRNA Translation in H4 Neuroglioblastoma Cells. [Related pubchem assays: 1827 (Project Summary), 1813 (Primary HTS)]; format: functional
# [13] = HEK293T cytotoxicity, dose response, cytotoxicity control for miR-122 modulator project, cell-based, activator set, cherry-pick (AID 720690); format: functional;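 also: HEK293T human cells scored for general mammalian cytotoxicity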
# [14] = inhibitors of SNCA 5'UTR-driven reporter translation, confirmation, H4 neuroglioma cells, luminescence (AID 1988); format: functional, cell-based
# [15] = inhibitors of firefly luciferase expression or activity, dose response, H4 neuroglioma cells, luminescence (AID 1990); format: functional, cell-based
# [16] = target: T7, Sentrin-specific protease 8 (Homo sapiens, UniProt Q96LD8); format: functional
# T7 sequence (Q96LD8 whole entry): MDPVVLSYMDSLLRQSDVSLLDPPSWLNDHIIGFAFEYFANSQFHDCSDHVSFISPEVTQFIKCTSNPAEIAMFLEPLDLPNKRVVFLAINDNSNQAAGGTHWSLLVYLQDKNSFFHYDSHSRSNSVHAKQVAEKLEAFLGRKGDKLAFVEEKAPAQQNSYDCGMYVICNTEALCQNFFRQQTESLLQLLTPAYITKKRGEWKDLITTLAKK
# [17] = target: T7, Sentrin-specific protease 8; format: functional; remark: listed apart in the source
# [18] = target: T8, Histone-lysine N-methyltransferase NSD2 (Homo sapiens, UniProt O96028); format: biochemical
# T8 sequence (O96028 whole entry): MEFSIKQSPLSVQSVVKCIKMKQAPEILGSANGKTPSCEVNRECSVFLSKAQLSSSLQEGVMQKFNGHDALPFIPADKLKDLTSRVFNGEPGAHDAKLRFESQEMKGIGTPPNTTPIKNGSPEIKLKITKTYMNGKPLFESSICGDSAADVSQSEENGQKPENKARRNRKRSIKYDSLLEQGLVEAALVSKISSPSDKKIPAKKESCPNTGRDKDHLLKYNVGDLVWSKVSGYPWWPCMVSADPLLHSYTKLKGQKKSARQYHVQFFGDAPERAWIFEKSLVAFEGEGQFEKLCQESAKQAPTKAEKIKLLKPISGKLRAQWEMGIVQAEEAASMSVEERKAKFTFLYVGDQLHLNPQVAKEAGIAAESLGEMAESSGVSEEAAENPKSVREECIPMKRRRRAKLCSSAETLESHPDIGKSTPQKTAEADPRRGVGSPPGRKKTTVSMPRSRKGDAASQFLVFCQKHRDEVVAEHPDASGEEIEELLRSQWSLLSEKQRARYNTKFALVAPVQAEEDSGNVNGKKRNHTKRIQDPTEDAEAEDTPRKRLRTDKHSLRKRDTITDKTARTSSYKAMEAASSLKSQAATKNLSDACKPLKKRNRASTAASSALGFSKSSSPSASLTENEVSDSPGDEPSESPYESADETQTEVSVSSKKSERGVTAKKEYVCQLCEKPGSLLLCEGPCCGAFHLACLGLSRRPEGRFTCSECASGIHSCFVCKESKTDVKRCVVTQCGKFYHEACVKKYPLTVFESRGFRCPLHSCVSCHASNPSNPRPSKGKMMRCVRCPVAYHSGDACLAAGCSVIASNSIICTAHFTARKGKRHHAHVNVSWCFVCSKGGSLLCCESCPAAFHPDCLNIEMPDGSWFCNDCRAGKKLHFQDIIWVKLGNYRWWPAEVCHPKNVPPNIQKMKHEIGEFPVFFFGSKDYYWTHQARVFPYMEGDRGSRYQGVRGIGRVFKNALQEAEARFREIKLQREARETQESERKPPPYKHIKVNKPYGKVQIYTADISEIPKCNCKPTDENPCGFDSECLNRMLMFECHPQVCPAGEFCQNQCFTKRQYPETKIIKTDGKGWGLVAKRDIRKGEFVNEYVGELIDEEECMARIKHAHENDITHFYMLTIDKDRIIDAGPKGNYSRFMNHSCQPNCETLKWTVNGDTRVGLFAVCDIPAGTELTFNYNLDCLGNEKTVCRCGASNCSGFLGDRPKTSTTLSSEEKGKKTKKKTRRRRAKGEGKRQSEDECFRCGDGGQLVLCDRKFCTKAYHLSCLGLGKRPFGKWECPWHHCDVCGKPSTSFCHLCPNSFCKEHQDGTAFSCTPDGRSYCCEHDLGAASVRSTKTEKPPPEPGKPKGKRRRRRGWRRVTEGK
structure (smiles),measurement,setting,value
CC(C)CSc1nnc(-c2ccco2)n1C,EC50,[1],> 91.2 µM (inactive)
same,EC50,[2],> 91.2 µM (inactive)
CCOC(=O)N1CCN(C(=O)/C=C/c2ccc(OC)cc2)CC1,IC50,[3],> 80 µM (inactive)
CC(=O)N1CCOc2ccc(S(=O)(=O)N3CCC(C(=O)NCc4ccc(C)cc4)CC3)cc21,IC50,[3],> 80 µM (inactive)
same,IC50,[4],> 47.1 µM (inactive)
same,EC50,[5],> 53 µM (inactive)
CC1=NN(c2ccc(Cl)c(C(=O)O)c2)C(=O)C1,IC50,[6],8.96 µM (active)
same,EC50,[7],2.15 µM (active)
same,IC50,[8],> 66.6 µM (inactive)
same,AC50,[9],1.16 µM (active)
same,IC50,[10],9.17 µM (active)
same,AC50,[11],1.88 µM (active)
CCOc1ccc(-c2nnc(SCC(=O)Nc3ccc4c(c3)c3ccccc3n4CC)n2N)cc1,EC50,[12],> 120 µM (not active)
same,AC50,[13],10.3 µM (active)
same,EC50,[14],11.6 µM (active)
same,EC50,[15],42.3 µM (active)
O=C(COc1ccccc1)N1CCc2ccccc2C1,IC50,[16],93.6 µM (inactive)
same,IC50,[17],23.7 µM (active)
O=[N+]([O-])c1ccc(N(CCO)CCO)c2c1no[n+]2[O-],AC50,[18],4.45 µM (active)
same,EC50,[1],> 91.2 µM (inactive)
same,EC50,[2],> 91.2 µM (inactive)
